# Data: patent US9827228B2, “Opioid receptor modulators and use thereof” (priority 2015, dated 2017)
# Where two headings read alike, the source gives them in different places.
# Experiments:
# [1] = tested on: B6 mice; test: Tail-flick test; assay type: in vivo; settings: for AUC of inhibition of the tail-flick response: 0-180 min
# Experimental: Male wild-type B6 mice (25-30 g) were kept in a temperature-controlled animal room with a 12-h light/dark cycle. The protocol was approved by the Institutional Animal Care and Use Committee of the National Health Research Institutes, Taiwan. Animal experiments were carried out in accordance with the Policies on the Use of Animals in Neuroscience Research and the ethical guidelines for investigations of experimental pain in conscious animals, International Association for the Study of Pain.
# Tail-Flick Analgesia Meter (Columbia Instruments, Trussville, Ala., USA) was used to measure the tail-flick latencies of mice. The cut-off time for each measurement was 10 s to avoid tissue damage. Basal latencies (in seconds) were recorded before treatment and test latencies (also in seconds) were recorded at 30, 60, 90, 120, and 180 minutes after an intravenous injection of compounds. Time-response curves from compounds at various concentrations were obtained for anti-nociceptive effects occurring between 0 and 180 minutes. The AUC values corresponding to the various concentrations were also calculated. The anti-nociceptive effects were quantitatively calculated by substracting the basal latency from the test latency. An ED50 value was determined by an up-and-down method reported in Crocker et al., Pharmacol Biochem Behav, 1984, 21, 133-136.
# To investigate whether AAMs could change the innate character of MOR to be activated by naloxone in vivo, tail-flick tests after acute treatment were performed. […] Unexpectedly, in mice injected only with the vehicle not containing naloxone, no anti-nociception effect was observed even with the highest dose of Compound 1 at 100 mg/kg. These in vivo results again indicate that Compound 1 served as an AAM of the MOR.
# [2] = target: T1, hMOR (Homo sapiens, UniProt P35372); test: cell-based; assay type: cell-based; settings: for AUC: AUC of [Ca2+]i fluorescence
# T1 construct: host or cells: CHO-K1
# T1 sequence (P35372 whole entry): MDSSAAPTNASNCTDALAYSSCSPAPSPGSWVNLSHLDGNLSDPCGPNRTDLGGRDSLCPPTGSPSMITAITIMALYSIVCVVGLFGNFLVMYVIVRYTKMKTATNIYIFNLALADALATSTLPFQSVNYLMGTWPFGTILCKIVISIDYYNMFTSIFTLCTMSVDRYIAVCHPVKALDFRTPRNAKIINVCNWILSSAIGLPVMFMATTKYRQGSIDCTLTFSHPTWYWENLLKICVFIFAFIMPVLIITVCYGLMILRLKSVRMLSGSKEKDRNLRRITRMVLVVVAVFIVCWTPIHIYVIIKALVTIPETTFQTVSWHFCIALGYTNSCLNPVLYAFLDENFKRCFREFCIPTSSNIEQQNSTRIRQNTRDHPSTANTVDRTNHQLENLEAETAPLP
# Experimental: Chinese hamster ovary (CHO)-K1 cells expressing hMOR and Gα15 (CHO-K1/MOR/Gα15) were cultured in F12 medium (GIBCO) supplemented with 10 μg/mL Hygromycin B (Invivogen), 20 μg/mL Zeocin (Invivogen) and P/S/F (100 units/mL penicillin, 100 μg/mL streptomycin, 10% fetal bovine serum). The cultures were incubated at 37° C. in a humidified 5% CO2 incubator.
# One day prior to running the assay, CORNING® black 96-well assay plates having a clear flat bottom were coated with a 0.1 mg/mL Poly-L-Lysine solution. CHO-K1/MOR/Gα15 cells were suspended in F12 medium and plated at a density of about 8×10^4 cells/well in 200 μL medium. Cells were incubated under a humidified atmosphere of 10% CO2 at 37° C. overnight to reach an 80-90% confluent cell monolayer before the assay. On the day of the assay, 150 μL medium was removed from each well of the plates. To each well were added FLIPR® calcium assay reagents (Molecular Devices Corporation, Sunnyvale, Calif., USA; 50 μL) dissolved in 1× assay buffer (HBSS: KCl 5 mM, KH2PO4 0.3 mM, NaCl 138 mM, NaHCO3 4 mM, Na2HPO4 0.3 mM, d-glucose 5.6 mM, with additional 20 mM HEPES and […], pH 7.4) and 2.5 mM probenecid. After incubation at 37° C. for 1 hour, a test compound, alone or together with naloxone (a MOR antagonist), was also added to each well. Using a FlexStationlll instrument (Molecular Devices Corp.), increments of the [Ca^2+]i fluorescence after robotic injection of the cell suspension were monitored at 1.52 s intervals using the excitation wavelength of 485 nm and the emission wavelength of 525 nm. The [Ca^2+]i fluorescence was measured up to 90 s after the injection. The fluorescence intensity from 6 to 12 wells of cells were averaged and the relative amount of [Ca^2+]i release was determined by integrating the AUC of the [Ca^2+]i fluorescence averages.
# A CHO-K1 cell line expressing MOR and Gα15 (GenScript) was used to set up a sensitive high-throughput screen (HTS) system. […] The HTS was performed in the absence or presence of naloxone (an opioid antagonist; 20 nM), to identify AAMs.
# [3] = combined with naloxone, CHO-K1/MOR/Gα15 cells
# [4] = EC50, combined with naloxone, CHO-K1/MOR/Gα15 cells
# [5] = combined with naloxone, CHO-K1/MOR/Gα15 cells, read-out: EC50
compound,measurement,setting,value
"CCc1ccccc1Nc1nc(-c2sc(C)nc2C)cs1 [Compound 1, N-(2-Ethylphenyl)-2′,4′-dimethyl-4,5′-bi-1,3-thiazol-2-amine]",anti-nociceptive effect,"[1]; Compound 1 alone at 25, 50, or 100 mg/kg (i.v.), B6 mice",did not produce any anti-nociceptive effect
same,AUC of inhibition of the tail-flick response,[1]; Compound 1 at 25 mg/kg (i.v.) with naloxone at 10 mg/kg,114.8±26 min×s
same,AUC of inhibition of the tail-flick response,[1]; Compound 1 at 50 mg/kg (i.v.) with naloxone at 10 mg/kg,159.8±60 min×s
same,AUC of inhibition of the tail-flick response,[1]; Compound 1 at 100 mg/kg (i.v.) with naloxone at 10 mg/kg,384±87 min×s
same,AUC,[2]; [3],+ (+: >5000)
same,EC50,"[2]; EC50, combined with naloxone",< 10 µM
same,EC50,"[2]; EC50, combined with naloxone (20 nM)",4 µM
same,EC50,[2]; [4],3 to 10 µM
same,effect on Emax and potency of naloxone,[2]; concentration-response curves of naloxone at several concentrations of Compound 1,both Emax and potency of naloxone were altered
same,calcium release,[2]; in the presence of naloxone,significant calcium release
same,PAM or NAM effect: Emax and potency of morphine,"[2]; morphine with Compound 1 at 30, 10, or 3.3 μM",neither Emax nor potency of morphine was significantly altered
"C=CCN1CC[C@]23c4c5ccc(O)c4O[C@H]2C(=O)CC[C@@]3(O)[C@H]1C5 [naloxone, reference compound]",ED50,"[1]; Mus musculus, mice injected with Compound 1 at 100 mg/kg, read-out: ED50 in inhibiting the tail-flick response",17.5 ± 4 mg/kg
"Cc1nc(C)c(-c2csc(Nc3nc4ccccc4s3)n2)s1 [Compound 117, N-(1,3-Benzothiazol-2-yl)-2′,4′-dimethyl-4,5′-bi-1,3-thiazol-2-amine]",AUC,[2]; [3],− (−: <5000)
same,EC50,[2]; [5],> 10 µM
"CCc1cccc(CC)c1Nc1nc(-c2sc(C)nc2C)cs1 [Compound 45, N-(2,6-Diethylphenyl)-2′,4′-dimethyl-4,5′-bi-1,3-thiazol-2-amine]",AUC,[2]; [3],− (−: <5000)
same,EC50,"[2]; EC50, combined with naloxone",< 10 µM
same,EC50,[2]; [4],1 to 3 µM
"CCc1ccccc1Nc1nc(-c2ccc(C)cc2C)cs1 [Compound 120, 4-(2,4-Dimethylphenyl)-N-(2-ethylphenyl)-1,3-thiazol-2-amine]",AUC,[2]; [3],− (−: <5000)
same,EC50,[2]; [5],> 10 µM
"Cc1nc(C)c(-c2csc(Nc3cc(Br)ccc3C)n2)s1 [Compound 19, N-(5-Bromo-2-methylphenyl)-2′,4′-dimethyl-4,5′-bi-1,3-thiazol-2-amine]",AUC,[2]; [3],− (−: <5000)
same,EC50,[2]; [5],> 10 µM
"COc1ccc(Nc2nc(-c3sc(C)nc3C)cs2)c(OC)c1 [Compound 14, N-(2,4-Dimethoxyphenyl)-2′,4′-dimethyl-4,5′-bi-1,3-thiazol-2-amine]",AUC,[2]; [3],+ (+: >5000)
same,EC50,[2]; [5],> 10 µM
